Where “and” joins values, the source holds several entries; their conditions need not be identical. Identical values can stand only once. Values belong to the compound of their own block, whether it stands above or below them.
Experiments:
[1] = molecular target: T1, 40% iron-saturated human transferrin (Homo sapiens, UniProt P02787); assay: Capacity to remove iron from 40% iron-saturated human transferrin; format: biochemical; conditions: Fe3+:desferri-Exochelin 10:1, PBS pH 7.4
Procedure: (§1) A. 40% Iron-Saturated Human Transferrin. To assess the capacity of the 3 different desferri-Exochelins to remove iron from 40% iron-saturated human transferrin, each of them was incubated for 1, 3, and 24 hours with 40% iron-saturated transferrin such that the ratio of Fe^3+: desferri-Exochelin equaled 10:1. The incubation was carried out in PBS, pH 7.4. Afterwards, the Exochelin and transferrin were separated from each other by centrifugation through a 10,000 dalton cut-off filter. The transferrin (mass 76,000 daltons) was completely excluded by this filter whereas 85% of the Exochelin (mass<1,000) was recovered in the filtrate. To determine the total amount of exochelin recovered, the exochelin in the filtrate was saturated with a 20:1 molar excess of ferric ammonium citrate and subjected to reverse-phase HPLC as described above. To determine the amount of iron-saturated Exochelin in the filtrate at each time point, the filtrate was subjected to reverse-phase HPLC without the addition of iron. The % iron-saturation was calculated as follows: [formula]

[2] = molecular target: T1, 40% iron-saturated human transferrin; assay: as above; format: biochemical
[3] = test system: ferri-Exochelin 758SM; assay: Capacity to remove iron from a different Exochelin species (Ferri-Exochelin 758SM); format: binding; conditions: for % of Calculated Iron-Saturation at Equilibrium 0 h / % of Calculated Iron-Saturation at Equilibrium 1 h / % of Calculated Iron-Saturation at Equilibrium 0 hour / % of Calculated Iron-Saturation at Equilibrium 1 hour: assuming comparable affinities for iron; for % of Calculated Iron-Saturation at Equilibrium 0 hour / % Iron-Saturation 0 hour / % of Calculated Iron-Saturation at Equilibrium 1 hour / % Iron-Saturation 1 hour: Table 2; for affinity for iron (in words): removal of iron from ferri-Exochelin 758SM within 1 h
Procedure: C. Capacity to Remove Iron from a Different Exochelin Species. To assess the affinity of the synthetic desferri-Exochelin 772SM(R) for iron, its capacity to remove iron from a different Exochelin species, ferri-Exochelin 758SM, was evaluated. The capacity of synthetic and native desferri-Exochelin 772SM(R) to remove iron from ferri-Exochelin 758SM was also evaluated and compared. Either native or synthetic desferri-Exochelin 772SM(R) were independently mixed with ferri-Exochelin 758SM. The amount of iron acquired in 1 hour by the desferri-Exochelins was assayed by subjecting the Exochelin to reverse-phase HPLC on a phenyl column, as described above, and the area under the 450 nm absorbance peak was measured. The amount of iron-Exochelin was then calculated using a conversion factor derived from assaying known amounts of ferri-Exochelin 772SM(R).
C. Capacity to Remove Iron from a Different Exochelin Species. To assess the affinity of the synthetic desferri-Exochelin 772SM(S) for iron, its capacity to remove iron from a different exochelin species, ferri-Exochelin 758SM was evaluated. The capacity of synthetic desferri-Exochelin 772SM(S) and native desferri-Exochelin 772SM(R) to remove iron from ferri-Exochelin 758SM was also evaluated and compared. Either synthetic desferri-Exochelin 772SM(S) or native desferri-Exochelin 772SM(R) was mixed with ferri-Exochelin 758SM. The amount of iron acquired by the desferri-exochelins after 1 hour was assayed by subjecting the molecule to reverse-phase HPLC on a phenyl column, as described above, and the area under the 450 nm absorbance peak was measured. The amount of iron-exochelin was then calculated using a conversion factor derived from assaying known amounts of ferri-Exochelin 772SM(R) and ferri-Exochelin 772SM(S).

[4] = test system: ferri-Exochelin 758SM; assay: Capacity to remove iron from Ferri-Exochelin 758SM in the same vial (772SM(R) vs 772SM(S)); format: binding; conditions: Table 3; for % Iron-Saturation 0 hour / % Iron-Saturation 1 hour: 772SM(R), 772SM(S) and 758SM in the same vial; for % of Calculated Iron-Saturation at Equilibrium 0 hour / % of Calculated Iron-Saturation at Equilibrium 1 hour: same vial, assuming comparable affinities
Procedure: To further assess the relative affinities of the stereoisomers desferri-Exochelin 772SM(R) and 772SM(S) for iron, their capacity to remove iron from a different exochelin species in the same vial were compared.
In the experiment,15.6 μg of 1.1% iron-saturated synthetic Exochelin 772SM(R) and 17.4 μg of 1.0% iron-saturated synthetic Exochelin 772SM(S) was mixed with 13.5 μg of 100% iron-saturated native Exochelin 758SM.

[5] = molecular target: human apotransferrin (<0.7% iron-saturated) (Homo sapiens, UniProt P02787); assay: Control incubation with human apotransferrin (<0.7% iron-saturated); format: biochemical; conditions: apotransferrin 38 mg/ml
Procedure: as §1
C. Apotransferrin (<0.7% Iron-Saturated Human Transferrin). As a control, the three desferri-exochelins were incubated for 3 h and 24 h with human apotransferrin (<0.7% iron-saturated) at a concentration of 38 mg/ml, the same concentration of protein as in the study utilizing 92% iron-saturated transferrin in B above. None of the desferri-exochelins acquired appreciable amounts of iron (Table 6).

[6] = Capacity to chelate iron from ferric ammonium citrate solution (reverse-phase HPLC, 450 nm); format: binding; conditions: for ferri-exochelin eluted from the HPLC column, % of the Exochelin added: absence of ferric ammonium citrate; for capacity to chelate iron (in words): ferric iron in solution; for exochelin eluted from the column in the ferri form: presence of ferric ammonium citrate, 10-fold molar excess of iron
Procedure: A. Capacity to Chelate Iron. To determine if the synthetic desferri-Exochelin 772SM(R) could chelate iron, as does the native form, the Exochelin was dissolved in 0.1% TFA containing ferric ammonium citrate at a 10-fold molar excess of iron to Exochelin. The solution was then loaded on a Bondapak Phenyl 125 Å 10 μm (3.9×300 mm) HPLC column and the Exochelin was subjected to reverse-phase HPLC (High Pressure Liquid Chromatography) on a Rainin (Woburn, Mass.) HPXL system. The Exochelin was eluted with a 0-100% gradient of a buffer consisting of 0.1% TFA and 50% acetonitrile at a flow rate of 1 ml/min. The ferri-exochelins were monitored at 220-nm and 450-nm absorbance. The mass of ferri-exochelin was assayed by measuring the area under the peak at 450-nm and applying a conversion factor derived from assaying known amounts of ferri-exochelin 772SM(R).
A. Capacity to Chelate Iron. The capacity of synthetic Exochelin 772SM(S) to chelate iron from a solution containing a 10-fold molar excess of ferric iron (ferric ammonium citrate) was assayed as described above.

[7] = listed as Synthetic Desferri-Exochelin 772SM(R)
[8] = listed as synthetic desferri-exochelin 772SM(R)
[9] = mixed with ferri-Exochelin 758SM
[10] = listed as synthetic Exochelin 772SM(R)
[11] = listed as synthetic desferri-Exochelin 772SM(R)
[12] = listed as Synthetic Desferri-Exochelin 772SM(S)
[13] = listed as synthetic Exochelin 772SM(S)

T1 sequence (P02787 20-698): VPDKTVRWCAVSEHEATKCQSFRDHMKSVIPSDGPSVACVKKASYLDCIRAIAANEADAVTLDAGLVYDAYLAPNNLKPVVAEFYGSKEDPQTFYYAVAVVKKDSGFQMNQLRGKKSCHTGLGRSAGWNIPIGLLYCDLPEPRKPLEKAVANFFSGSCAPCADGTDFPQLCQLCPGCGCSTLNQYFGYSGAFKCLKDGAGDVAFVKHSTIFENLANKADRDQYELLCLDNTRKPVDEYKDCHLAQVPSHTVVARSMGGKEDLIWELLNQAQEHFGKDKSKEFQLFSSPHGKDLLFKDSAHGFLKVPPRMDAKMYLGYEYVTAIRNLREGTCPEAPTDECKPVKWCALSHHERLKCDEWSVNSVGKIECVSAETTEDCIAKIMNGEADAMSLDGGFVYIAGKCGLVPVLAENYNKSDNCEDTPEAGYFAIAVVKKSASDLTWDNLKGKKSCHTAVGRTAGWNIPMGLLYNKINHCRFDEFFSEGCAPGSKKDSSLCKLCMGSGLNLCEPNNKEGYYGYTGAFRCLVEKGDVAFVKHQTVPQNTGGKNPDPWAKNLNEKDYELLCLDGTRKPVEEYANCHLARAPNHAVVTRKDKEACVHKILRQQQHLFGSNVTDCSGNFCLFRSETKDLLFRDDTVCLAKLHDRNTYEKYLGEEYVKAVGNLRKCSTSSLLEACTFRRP
Chain of human apotransferrin (<0.7% iron-saturated) (P02787 20-698): as above

Iron-Saturation 1 h [1, 7]: 6.8%
Iron-Saturation 3 h [1, 7]: 12.8%
Iron-Saturation 24 h [1, 7]: 39.2%
Iron-Saturation 24 h [1, 8]: 39.2%
Iron-Saturation 0 h ([2]; Fe3+:desferri-Exochelin 10:1, PBS pH 7.4, listed as Synthetic Desferri-Exochelin 772SM(R)): 1.1%
Iron-Saturation 0 h [5, 7]: 1.1%
Iron-Saturation 3 h [5, 7]: 5.2%
Iron-Saturation 24 h [5, 7]: 6.9%
SMILES: COC(=O)CCCCCC(=O)N(O)CCCCC(NC(=O)C1COC(c2ccccc2O)=N1)C(=O)OC(C)CC(=O)NC1CCCCN(O)C1=O [Synthetic 772SM(R), Exochelin 772SM(R)]
% of Calculated Iron-Saturation at Equilibrium 0 h ([3]; Table 1, 0 h, 17.3 µg 772SM(R), Experiment II): 2.0%
% of Calculated Iron-Saturation at Equilibrium 0 h ([3]; Table 1, 0 h, 26.1 µg 772SM(R), Experiment I): 2.7%
% Iron-Saturation 0 h ([3]; Table 1, 0 h, mixed with ferri-Exochelin 758SM): 1.1%
% of Calculated Iron-Saturation at Equilibrium 1 h ([3]; Table 1, 17.3 µg 772SM(R), Experiment II): 90.2%
% of Calculated Iron-Saturation at Equilibrium 1 h ([3]; Table 1, 26.1 µg 772SM(R), Experiment I): 81.3%
% of Calculated Iron-Saturation at Equilibrium 1 h ([3]; Table 1, listed as synthetic Exochelin 772SM(R)): 81.3% and 90.2%
% Iron-Saturation 1 h ([3]; Table 1, mixed with ferri-Exochelin 758SM, 17.3 µg 772SM(R), Experiment II): 48.6%
% Iron-Saturation 1 h ([3]; Table 1, mixed with ferri-Exochelin 758SM, 26.1 µg 772SM(R), Experiment I): 33.5%
% Iron-Saturation 1 h ([3]; Table 1, mixed with ferri-Exochelin 758SM, listed as synthetic Exochelin 772SM(R)): 33.5% and 48.6%
% of Calculated Iron-Saturation at Equilibrium 0 hour [3]: 2.3%
% Iron-Saturation 0 hour [3, 9]: 1.1%
% of Calculated Iron-Saturation at Equilibrium 1 hour [3]: 90.7%
% of Calculated Iron-Saturation at Equilibrium 1 hour [3, 10]: 90.7%
% Iron-Saturation 1 hour [3, 9]: 42.9%
% Iron-Saturation 1 hour ([3]; mixed with ferri-Exochelin 758SM, listed as synthetic Exochelin 772SM(R)): 42.9%
affinity for iron (in words) [3]: very high affinity for iron
% Iron-Saturation 0 hour [4]: 1.1%
% of Calculated Iron-Saturation at Equilibrium 0 hour [4]: 3.7%
% Iron-Saturation 1 hour [4]: 28.2%
% Iron-Saturation 1 hour [4, 10]: 28.2%
% of Calculated Iron-Saturation at Equilibrium 1 hour [4]: 94.3%
% of Calculated Iron-Saturation at Equilibrium 1 hour [4, 10]: 94.3%
ferri-exochelin eluted from the HPLC column, % of the Exochelin added [6, 11]: 1.08%
capacity to chelate iron (in words) [6, 8]: rapidly chelates ferric iron in solution
exochelin eluted from the column in the ferri form [6, 11]: 100%

Iron-Saturation 1 h [1, 12]: 14.2%
Iron-Saturation 3 h [1, 12]: 13.8%
Iron-Saturation 24 h [1, 12]: 35.3%
Iron-Saturation 24 h ([1]; listed as synthetic desferri-exochelin 772SM(S)): 35.3%
Iron-Saturation 0 h ([2]; Fe3+:desferri-Exochelin 10:1, PBS pH 7.4, listed as Synthetic Desferri-Exochelin 772SM(S)): 1.0%
Iron-Saturation 0 h [5, 12]: 1.0%
Iron-Saturation 3 h [5, 12]: 5.0%
Iron-Saturation 24 h [5, 12]: 4.1%
SMILES: COC(=O)CCCCCC(=O)N(O)CCCCC(NC(=O)C1COC(c2ccccc2O)=N1)C(=O)OC(C)CC(=O)NC1CCCCN(O)C1=O [Synthetic 772SM(S), Exochelin 772SM(S)]
% of Calculated Iron-Saturation at Equilibrium 0 hour [3]: 2.3%
% Iron-Saturation 0 hour [3, 9]: 1.0%
% of Calculated Iron-Saturation at Equilibrium 1 hour [3]: 89.6%
% of Calculated Iron-Saturation at Equilibrium 1 hour [3, 13]: 89.6%
% Iron-Saturation 1 hour [3, 9]: 39.7%
% Iron-Saturation 1 hour ([3]; mixed with ferri-Exochelin 758SM, listed as synthetic Exochelin 772SM(S)): 39.7%
affinity for iron (in words) [3]: very high affinity for iron
% Iron-Saturation 0 hour [4]: 1.0%
% of Calculated Iron-Saturation at Equilibrium 0 hour [4]: 3.3%
% Iron-Saturation 1 hour [4]: 25.9%
% Iron-Saturation 1 hour ([4]; listed as Exochelin 772SM(S)): 25.9%
% of Calculated Iron-Saturation at Equilibrium 1 hour [4]: 86.6%
% of Calculated Iron-Saturation at Equilibrium 1 hour ([4]; listed as Exochelin 772SM(S)): 86.6%
ferri-exochelin eluted from the HPLC column, % of the Exochelin added [6, 13]: 1.03%
capacity to chelate iron (in words) ([6]; listed as synthetic desferri-Exochelin 772SM(S)): rapidly chelates iron in solution
exochelin eluted from the column in the ferri form [6, 13]: fully saturated with iron

Source: patent US6335443B1, “Chemical synthesis of exochelins” (Keystone Biomedical, Inc., priority 1998, dated 2002)
